The pIC50 is the IC50 on a negative log10 scale, so that one unit is a factor of ten.

The values below come from US8716287B2, “Pharmaceutical compounds” (Sentinel Oncology Limited, priority 2010, dated 2014).

The test system of series [1] is Calu 6. Description: Potentiation assay with DNA damaging agents in Calu 6 cells. It counts as cell-based. As to conditions: Calu 6 human lung adenocarcinoma, Example 4 at 8 μM. Here is the method: (§1) The following protocol was used:
(§2) (a) HT29 cells were seeded in 96-well plates at a concentration of 3000 cells per well and allowed to adhere overnight prior to addition of compound or vehicle control.
(§3) (b) SN38 was prepared from a 10 mM DMSO stock to give a final concentration range of 1 μM, 300 nM, 100 nM, 30 nM, 10 nM, 3 nM, 1 nM, and vehicle control.
(§4) (c) Test compounds were prepared from 10 mM DMSO stocks to typically give a final concentration range of 3 μM, 1 μM, 0.3 μM. 0.1 μM, 0.03 μM and vehicle control. The final DMSO content was 0.4%.
(§5) (d) Test compounds were incubated with the cells for 72 h at 37° C. 5% CO2 in a humidified atmosphere.
(§6) (e) Alamar blue 10% (v/v) was then added and incubated for a further 6 h, and fluorescent product detected using the BMG FLUOstar plate reader.
(§7) (f) Data were analysed using a 4-parameter logistic equation in GraphPad Prism.
(§8) Sensitisation is determined by the enhancement in IC50 of SN38 by the addition of the Chk-1 kinase inhibitor. In the protocol described above, the IC50 for SN-38 is determined the presence of varying doses of the Chk-1 inhibitor. The fold shift represents a decrease in IC50 for SN-38 at a dose of Chk-1 inhibitor that has no effect by itself.
(§9) Using the general protocol set out in Example 67, the compound of Example 4 was tested in potentiation assays against a variety of cell lines in combination with several different DNA damaging anti-cancer agents.

Series [2] deals with SW620. The series can be described thus: Potentiation assay with DNA damaging agents in SW620 cells. As to conditions: SW620 human colon adenocarcinoma. It is filed as cell-based. Here is the method: as §1, §2, §3, §4, §5, §6, §7, §8, §9
Series [3] deals with HT29 cells. The series can be described thus: Sensitisation of HT29 cells to SN38 (Alamar blue cell growth). It is filed as cell-based, human. As to conditions: HT29 cells.
Series [4] deals with HT29. The series can be described thus: Potentiation assay with DNA damaging agents in HT29 cells. It counts as cell-based. As to conditions: HT29 human colon cancer; gemcitabine; Example 4 at 4 μM. Here is the method: as §1, §2, §3, §4, §5, §6, §7
Sensitisation is determined by the enhancement in IC50 of SN38 by the addition of the Chk-1 kinase inhibitor. In the protocol described above, the IC50 for SN-38 is determined the presence of varying doses of the Chk-1 inhibitor. The fold shift represents a decrease in IC50 for SN-38 at a dose of Chk-1 inhibitor that has no effect by itself. […]

Series [5] addresses Chk-1 kinase (Homo sapiens (Human), UniProt O14757). The series can be described thus: Chk-1 kinase inhibiting activity (33P-ATP filter assay, CHKtide substrate). It is filed as biochemical.
In series [6] the test system is MOLM-13 cells. The series can be described thus: Inhibition of cell growth in MOLM-13 cells (Alamar blue). It counts as cell-based. As to conditions: Homo sapiens, 72 h incubation. Here is the method: (§10) Studies were carried out to test the effect of compounds on the inhibition of cell growth in MOLM-13 and MV4-11 cells.
as §1
(§11) (a) Cells were seeded in 96-well plates at cell densities of 2500/well (MOLM-13) and 10,000/well (MV4-11). Cells were then incubated overnight prior to addition of compound or vehicle control.
(§12) (b) Test compounds were prepared from 10 mM DMSO stocks to give a final concentration range of 10 μM, 3 μM, 1 μM, 0.3 μM, 0.1 μM, […], […] and vehicle control. The DMSO content was constant at 0.1%.
(§13) (c) Test compounds were incubated with the cells for 72 h at 37° C. 5% CO2 in a humidified atmosphere.
(§14) (d) Alamar blue 10% (v/v) was then added and incubated for a further 4 h, and fluorescent product detected using the BMG FLUOstar plate reader.
(§15) (e) Media only background values were subtracted and the data analysed using a 4-parameter logistic equation in GraphPad Prism.
(§16) From the results obtained by following the above protocol, the IC50 values against MOLM-13 and MV4-11 cells of the compounds of Examples 20, 21, 22, 25, 33, 35, 37, 38, 44, 48, 49, 50, 51, 53, 54 and 55 were determined.
For orientation: The colour change of resazurin is a common sign of viable cells or microbes.

For series [7], the system named is MV4-11 cells. The series can be described thus: Inhibition of cell growth in MV4-11 cells (Alamar blue). As to conditions: Homo sapiens, 72 h incubation. It counts as cell-based. Here is the method:
as §10, §1, §11, §12, §13, §14, §15, §16

Setting [8] is: Chk-1 kinase, Table 3, read-out: IC50.
Setting [9] is: ranges given, read-out: IC50 values against Chk-1 kinase.

pIC50: −log10 of the molar value. Entries after “also recorded” stand apart in the source; their conditions may differ. Structures can show the parent of a compound that is named as a salt. Where two headings read alike, the source gives them in different places.

Sequence of Chk-1 kinase (O14757 whole entry): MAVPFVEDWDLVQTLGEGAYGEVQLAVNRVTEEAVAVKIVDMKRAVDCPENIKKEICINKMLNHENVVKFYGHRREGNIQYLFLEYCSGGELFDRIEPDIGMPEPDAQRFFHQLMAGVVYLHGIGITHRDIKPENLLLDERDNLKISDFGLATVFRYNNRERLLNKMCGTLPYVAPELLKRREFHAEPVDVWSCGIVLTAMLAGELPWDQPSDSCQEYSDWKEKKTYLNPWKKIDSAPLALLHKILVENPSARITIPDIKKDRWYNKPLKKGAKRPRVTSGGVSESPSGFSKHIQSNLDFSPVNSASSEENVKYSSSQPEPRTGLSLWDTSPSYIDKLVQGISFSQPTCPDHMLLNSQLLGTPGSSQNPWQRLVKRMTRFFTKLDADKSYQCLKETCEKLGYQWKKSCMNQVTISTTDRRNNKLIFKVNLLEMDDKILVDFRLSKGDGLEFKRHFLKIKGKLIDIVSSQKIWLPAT

Turning to `N#Cc1cnc(NC(=O)Nc2ccc(CCNCc3ccc(F)cc3)c(Cl)c2)cn1` [Example 4, 1-{3-Chloro-4-[2-(4-fluoro-benzylamino)-ethyl]-phenyl}-3-(5-cyano-pyrazin-2-yl)-urea], the Potentiation factor in series [1] (SN-38) was determined as 3.7; in series [1] (etoposide), 7.6; in series [1] (gemcitabine), 6.1; in series [2] (SN-38, Example 4 at 4 μM), 16.4; in series [2] (etoposide, Example 4 at 1 μM) it was 2.6; in series [2] (gemcitabine, Example 4 at 2 μM), 2.5. In series [4], the Potentiation factor was determined as 18. Also, the “fold shift in the IC50 value of SN38” value in series [3] (test compound at 1.25 μM) is recorded as “three”. The results for the negative logarithm of the IC50 (pIC50) in series [5] (setting [8]) and in series [5] (setting [9]) were 7.82 and 7.00 to 8.00, respectively.

For the molecule `CN1CCN(c2ccc(CNCCc3ccc(NC(=O)Nc4cnc(C#N)cn4)cc3Cl)cc2)CC1` [Example 35, 1-(3-Chloro-4-{2-[4-(4-methyl-piperazin-1-yl)-benzylamino]-ethyl}-phenyl)-3-(5-cyano-pyrazin-2-yl)-urea], the negative-log IC50 (pIC50) in series [6] was 5.89; in series [7], 5.41; in series [5] (setting [8]) it was 8.85; in series [5] (setting [9]), above 8.00. The “fold shift in the IC50 value of SN38” value in series [3] (test compound at 1 μM) is given as “two”.

Turning to `COc1cc(CNCc2ccccc2)ccc1NC(=O)Nc1cnc(C#N)cn1` [Example 22, 1-[4-(Benzylamino-methyl)-2-methoxy-phenyl]-3-(5-cyano-pyrazin-2-yl)-urea], the pIC50 was below 5.52 in series [6], below 5.52 in series [7], 7.00 in series [5] (setting [8]) and 7.00 to 8.00 in series [5] (setting [9]). Further, the “fold shift in the IC50 value of SN38” value in series [3] (test compound at 3 μM) is recorded as “three; also recorded: greater than ten”.

For the molecule `COc1cc(CCNCc2ccc(F)cc2)ccc1NC(=O)Nc1cnc(C#N)cn1` [Example 20, 1-(5-Cyano-pyrazin-2-yl)-3-{4-[2-(4-fluoro-benzylamino)-ethyl]-2-methoxy-phenyl}-urea], the negative-log IC50 (pIC50) in series [6] was 6.30; in series [7] it was 6.09; in series [5] (setting [8]) it was 8.55; in series [5] (setting [9]) it was above 8.00. Moreover, in series [3] (test compound at 3 μM), the “fold shift in the IC50 value of SN38” value is “three; also recorded: greater than ten”.

In the case of `COc1ccc(CNCCc2cc(OC)c(NC(=O)Nc3cnc(C#N)cn3)cc2Cl)cc1` [Example 49, 1-{5-Chloro-2-methoxy-4-[2-(4-methoxy-benzylamino)-ethyl]-phenyl}-3-(5-cyano-pyrazin-2-yl)-urea hydrochloride], the pIC50 in series [6] was 7.22; in series [7], 6.92; in series [5] (setting [8]), 9.55; in series [5] (setting [9]), above 8.00. The “fold shift in the IC50 value of SN38” value in series [3] (test compound at 1 μM) is on record as “two”; in series [3] (test compound at 3 μM), “greater than ten”.

With `COc1cc(CCNCc2ccc(N3CCN(C)CC3)cc2)c(Cl)cc1NC(=O)Nc1cnc(C#N)cn1` [Example 50, 1-(5-Chloro-2-methoxy-4-{2-[4-(4-methyl-piperazin-1-yl)-benzylamino]-ethyl}-phenyl)-3-(5-cyano-pyrazin-2-yl)-urea hydrochloride], the pIC50 is 7.15 in series [6], 6.51 in series [7], 9.35 in series [5] (setting [8]) and above 8.00 in series [5] (setting [9]). In series [3] (test compound at 1 μM), the “fold shift in the IC50 value of SN38” value is reported as “two”.

Regarding `COc1cccc(CNCCc2cc(OC)c(NC(=O)Nc3cnc(C#N)cn3)cc2Cl)c1` [Example 48, 1-{5-Chloro-2-methoxy-4-[2-(3-methoxy-benzylamino)-ethyl]-phenyl}-3-(5-cyano-pyrazin-2-yl)-urea hydrochloride], the pIC50 is 7.00 in series [6], 6.72 in series [7], 9.33 in series [5] (setting [8]) and above 8.00 in series [5] (setting [9]). The “fold shift in the IC50 value of SN38” value in series [3] (test compound at 1 μM) was “two”; in series [3] (test compound at 3 μM) it was “greater than ten”.

With `COc1cc(CCNCc2ccc(F)cc2)c(Cl)cc1NC(=O)Nc1cnc(C#N)cn1` [Example 37, 1-{5-Chloro-4-[2-(4-fluoro-benzylamino)-ethyl]-2-methoxy-phenyl}-3-(5-cyano-pyrazin-2-yl)-urea hydrochloride], the negative logarithm of the IC50 (pIC50) in series [6] was 6.24; in series [7] it was 6.00; in series [5] (setting [8]), 8.80; in series [5] (setting [9]), above 8.00. Moreover, the “fold shift in the IC50 value of SN38” value in series [3] (test compound at 1 μM) is on record as “two”; in series [3] (test compound at 3 μM), “greater than ten”.

For the molecule `CN1CCN(c2cccc(CNCCc3ccc(NC(=O)Nc4cnc(C#N)cn4)cc3Cl)c2)CC1` [Example 38, 1-(3-Chloro-4-{2-[3-(4-methyl-piperazin-1-yl)-benzylamino]-ethyl}-phenyl)-3-(5-cyano-pyrazin-2-yl)-urea], the negative-log IC50 (pIC50) in series [6] was 6.21; in series [7], 5.61; in series [5] (setting [8]) it was 8.04; in series [5] (setting [9]), above 8.00. Moreover, in series [3] (test compound at 3 μM), the “fold shift in the IC50 value of SN38” value was “three”.

In the case of `COc1cc(OCCNCc2ccc(F)cc2F)ccc1NC(=O)Nc1cnc(C#N)cn1` [Example 33, 1-(5-Cyano-pyrazin-2-yl)-3-{4-[2-(2,4-difluoro-benzylamino)-ethoxy]-2-methoxy-phenyl}-urea], the negative logarithm of the IC50 (pIC50) in series [6] was 5.89; in series [7], 5.89; in series [5] (setting [8]), 8.52; in series [5] (setting [9]), above 8.00. In series [3] (test compound at 3 μM), the “fold shift in the IC50 value of SN38” value is “three”.
